{"source": "ChEMBL document CHEMBL5465560", "about": "“Selectivity Literature for EUbOPEN Chemogenomic Library” (2024)", "key": {"[1]": {"target": "T1, NUAK family SNF1-like kinase 2 (Homo sapiens) (UniProt Q9H093)", "T1 sequence (whole entry)": "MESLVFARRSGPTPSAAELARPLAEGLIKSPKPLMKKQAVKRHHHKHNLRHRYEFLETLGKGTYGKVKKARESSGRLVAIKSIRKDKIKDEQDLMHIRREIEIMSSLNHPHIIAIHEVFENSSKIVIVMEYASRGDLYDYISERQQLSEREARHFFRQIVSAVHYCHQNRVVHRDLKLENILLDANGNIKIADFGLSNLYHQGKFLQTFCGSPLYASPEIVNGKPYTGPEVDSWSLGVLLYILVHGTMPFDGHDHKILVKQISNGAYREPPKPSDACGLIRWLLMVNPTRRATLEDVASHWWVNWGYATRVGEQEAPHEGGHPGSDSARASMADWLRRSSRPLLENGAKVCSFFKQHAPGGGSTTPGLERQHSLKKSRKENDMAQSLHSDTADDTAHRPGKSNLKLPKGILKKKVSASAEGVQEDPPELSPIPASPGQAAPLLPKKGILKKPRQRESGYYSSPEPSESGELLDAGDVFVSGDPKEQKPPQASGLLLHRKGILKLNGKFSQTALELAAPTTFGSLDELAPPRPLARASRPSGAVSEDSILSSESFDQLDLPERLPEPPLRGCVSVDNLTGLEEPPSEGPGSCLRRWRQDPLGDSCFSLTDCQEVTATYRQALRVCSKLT", "test": "Selectivity interaction (KinomeScan (DiscoverX)) EUB0000666a NUAK2", "conditions": "at 10 µM"}, "[2]": {"target": "T2, Serine/threonine-protein kinase BRSK1 (Homo sapiens) (UniProt Q8TDC3)", "T2 sequence (whole entry)": "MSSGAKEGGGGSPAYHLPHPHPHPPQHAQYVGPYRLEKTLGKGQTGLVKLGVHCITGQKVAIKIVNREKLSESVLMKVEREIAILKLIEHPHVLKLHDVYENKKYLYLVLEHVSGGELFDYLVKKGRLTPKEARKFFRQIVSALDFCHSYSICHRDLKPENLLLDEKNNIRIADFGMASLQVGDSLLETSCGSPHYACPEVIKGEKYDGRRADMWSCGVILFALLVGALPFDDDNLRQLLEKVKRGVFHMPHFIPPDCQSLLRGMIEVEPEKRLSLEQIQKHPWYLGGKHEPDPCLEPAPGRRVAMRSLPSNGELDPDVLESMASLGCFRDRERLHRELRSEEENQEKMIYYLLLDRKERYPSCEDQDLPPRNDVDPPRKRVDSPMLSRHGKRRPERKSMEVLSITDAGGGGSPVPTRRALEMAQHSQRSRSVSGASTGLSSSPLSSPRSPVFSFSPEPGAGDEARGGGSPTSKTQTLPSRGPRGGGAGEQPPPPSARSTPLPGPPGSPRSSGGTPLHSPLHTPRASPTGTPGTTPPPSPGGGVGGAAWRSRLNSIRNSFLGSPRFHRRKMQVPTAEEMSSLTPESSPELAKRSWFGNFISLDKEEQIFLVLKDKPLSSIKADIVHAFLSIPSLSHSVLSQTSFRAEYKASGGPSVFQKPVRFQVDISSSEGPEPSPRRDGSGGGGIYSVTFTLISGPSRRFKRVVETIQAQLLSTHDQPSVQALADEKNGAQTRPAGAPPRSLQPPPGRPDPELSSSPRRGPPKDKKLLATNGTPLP", "test": "Selectivity interaction (KinomeScan (DiscoverX)) EUB0001079a BRSK1", "conditions": "at 1 µM"}, "[3]": {"target": "T3, Serine/threonine-protein kinase Nek3 (Homo sapiens) (UniProt P51956)", "T3 sequence (whole entry)": "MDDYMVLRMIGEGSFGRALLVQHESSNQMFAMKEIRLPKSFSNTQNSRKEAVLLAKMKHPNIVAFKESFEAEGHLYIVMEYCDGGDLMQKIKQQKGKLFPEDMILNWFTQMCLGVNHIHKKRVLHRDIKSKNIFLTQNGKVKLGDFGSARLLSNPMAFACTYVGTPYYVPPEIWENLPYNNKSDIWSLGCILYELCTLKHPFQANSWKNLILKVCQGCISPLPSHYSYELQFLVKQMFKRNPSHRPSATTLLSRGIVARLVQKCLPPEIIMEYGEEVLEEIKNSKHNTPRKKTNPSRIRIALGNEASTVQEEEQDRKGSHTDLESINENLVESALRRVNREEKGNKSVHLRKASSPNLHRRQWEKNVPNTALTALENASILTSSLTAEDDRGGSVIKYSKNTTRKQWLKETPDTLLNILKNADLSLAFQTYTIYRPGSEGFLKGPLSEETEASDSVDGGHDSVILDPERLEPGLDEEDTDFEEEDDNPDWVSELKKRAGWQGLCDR", "test": "Selectivity interaction (Kinase panel (KiNativ target engagement assay in Jurkat cells)) EUB0001635a NEK3", "assay_type": "cell-based", "conditions": "at 1 µM"}, "[4]": {"target": "Serine/threonine-protein kinase N2 (Homo sapiens, UniProt Q16513)", "sequence (Q16513 whole entry)": "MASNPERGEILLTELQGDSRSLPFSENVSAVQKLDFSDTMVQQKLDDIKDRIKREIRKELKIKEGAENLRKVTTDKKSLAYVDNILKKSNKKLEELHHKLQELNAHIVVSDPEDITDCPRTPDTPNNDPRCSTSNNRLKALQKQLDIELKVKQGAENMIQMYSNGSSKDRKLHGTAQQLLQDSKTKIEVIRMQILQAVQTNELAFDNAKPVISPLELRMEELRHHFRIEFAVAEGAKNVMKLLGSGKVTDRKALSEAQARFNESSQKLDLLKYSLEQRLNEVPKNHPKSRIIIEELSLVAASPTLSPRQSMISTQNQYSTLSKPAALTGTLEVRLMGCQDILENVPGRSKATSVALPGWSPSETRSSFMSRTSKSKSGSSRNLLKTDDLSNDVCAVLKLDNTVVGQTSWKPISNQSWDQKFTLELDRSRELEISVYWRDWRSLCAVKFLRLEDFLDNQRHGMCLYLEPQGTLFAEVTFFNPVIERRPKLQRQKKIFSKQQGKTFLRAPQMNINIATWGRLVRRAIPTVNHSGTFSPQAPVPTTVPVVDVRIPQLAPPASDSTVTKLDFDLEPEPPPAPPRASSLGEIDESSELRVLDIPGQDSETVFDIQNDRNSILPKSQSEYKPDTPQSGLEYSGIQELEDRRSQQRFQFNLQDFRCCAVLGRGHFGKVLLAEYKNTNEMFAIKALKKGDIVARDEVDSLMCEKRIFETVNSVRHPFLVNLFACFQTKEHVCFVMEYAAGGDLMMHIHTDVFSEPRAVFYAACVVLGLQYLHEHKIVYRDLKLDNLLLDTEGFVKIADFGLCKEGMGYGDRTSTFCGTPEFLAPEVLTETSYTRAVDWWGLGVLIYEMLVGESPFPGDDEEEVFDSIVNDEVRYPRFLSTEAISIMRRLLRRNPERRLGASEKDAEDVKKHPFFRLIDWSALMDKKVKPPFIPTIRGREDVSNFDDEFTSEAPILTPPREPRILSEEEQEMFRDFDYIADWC", "test": "Selectivity interaction (Kinase panel (33PanQinase(R) Activity Assay)) EUB0000877a PKN2"}, "[5]": {"target": "T4, Dual specificity mitogen-activated protein kinase kinase 3 (Homo sapiens) (UniProt P46734)", "T4 sequence (whole entry)": "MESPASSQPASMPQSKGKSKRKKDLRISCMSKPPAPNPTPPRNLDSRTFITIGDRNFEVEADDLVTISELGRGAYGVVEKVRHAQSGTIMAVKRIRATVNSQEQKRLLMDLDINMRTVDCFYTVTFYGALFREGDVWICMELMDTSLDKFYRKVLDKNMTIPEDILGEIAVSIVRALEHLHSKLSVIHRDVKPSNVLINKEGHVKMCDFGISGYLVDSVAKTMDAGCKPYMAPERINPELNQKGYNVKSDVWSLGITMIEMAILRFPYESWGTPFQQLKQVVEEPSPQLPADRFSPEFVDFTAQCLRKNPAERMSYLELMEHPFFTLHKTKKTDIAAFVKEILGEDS", "test": "Selectivity interaction (ActivX KiNativ screen (kinase selectivity in THP-1 cell lysates)) EUB0000639a MAP2K3", "assay_type": "subcellular", "conditions": "lysate, at 0.2 µM"}, "[6]": {"target": "Vascular endothelial growth factor receptor 1 (Homo sapiens) (UniProt P17948)", "sequence (P17948 whole entry)": "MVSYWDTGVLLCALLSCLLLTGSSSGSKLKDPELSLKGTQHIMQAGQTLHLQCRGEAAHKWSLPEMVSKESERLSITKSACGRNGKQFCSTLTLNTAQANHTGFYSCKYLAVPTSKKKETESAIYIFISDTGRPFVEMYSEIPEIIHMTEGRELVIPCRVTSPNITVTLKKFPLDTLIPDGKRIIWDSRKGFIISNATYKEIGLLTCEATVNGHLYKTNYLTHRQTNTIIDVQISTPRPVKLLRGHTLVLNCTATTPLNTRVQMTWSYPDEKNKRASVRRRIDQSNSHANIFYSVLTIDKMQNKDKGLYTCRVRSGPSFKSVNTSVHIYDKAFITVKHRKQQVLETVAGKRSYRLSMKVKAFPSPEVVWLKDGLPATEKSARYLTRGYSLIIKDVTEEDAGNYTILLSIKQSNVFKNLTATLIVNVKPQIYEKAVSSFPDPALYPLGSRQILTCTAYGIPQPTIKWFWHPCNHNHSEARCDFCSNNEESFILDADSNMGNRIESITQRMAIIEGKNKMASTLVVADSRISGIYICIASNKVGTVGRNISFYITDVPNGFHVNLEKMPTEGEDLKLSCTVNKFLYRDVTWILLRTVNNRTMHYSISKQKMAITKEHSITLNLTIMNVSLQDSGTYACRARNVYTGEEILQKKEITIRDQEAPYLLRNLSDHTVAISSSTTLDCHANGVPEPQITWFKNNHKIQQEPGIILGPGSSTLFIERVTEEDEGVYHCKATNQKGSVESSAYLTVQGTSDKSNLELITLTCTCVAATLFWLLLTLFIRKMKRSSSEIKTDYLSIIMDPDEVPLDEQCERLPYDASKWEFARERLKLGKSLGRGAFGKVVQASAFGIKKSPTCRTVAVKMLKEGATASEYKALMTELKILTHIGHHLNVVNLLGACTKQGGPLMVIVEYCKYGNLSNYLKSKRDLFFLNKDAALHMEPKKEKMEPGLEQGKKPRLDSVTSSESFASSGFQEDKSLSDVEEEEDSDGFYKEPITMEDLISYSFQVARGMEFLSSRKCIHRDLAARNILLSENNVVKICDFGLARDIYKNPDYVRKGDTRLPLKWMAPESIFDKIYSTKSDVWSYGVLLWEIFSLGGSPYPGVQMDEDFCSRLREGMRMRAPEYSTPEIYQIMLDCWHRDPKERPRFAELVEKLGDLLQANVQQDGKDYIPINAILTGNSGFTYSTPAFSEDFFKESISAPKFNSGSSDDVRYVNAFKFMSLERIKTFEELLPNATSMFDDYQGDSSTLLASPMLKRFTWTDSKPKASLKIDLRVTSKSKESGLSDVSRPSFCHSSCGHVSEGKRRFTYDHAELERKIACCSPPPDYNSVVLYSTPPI", "test": "Selectivity interaction (Kinase screening (Nanosyn)) EUB0000604a FLT1"}, "[7]": {"tested_on": "Tyrosine-protein kinase ABL1 (Homo sapiens), P00519 [Q252H]", "test": "Selectivity interaction (Ambit KINOMEscan and KiNATiv profiling in Jurkat cells) EUB0000090b ABL1", "assay_type": "cell-based", "conditions": "at 1 µM"}, "[8]": {"target": "Macrophage-stimulating protein receptor (Homo sapiens, UniProt Q04912)", "sequence (Q04912 25-304 limits assumed)": "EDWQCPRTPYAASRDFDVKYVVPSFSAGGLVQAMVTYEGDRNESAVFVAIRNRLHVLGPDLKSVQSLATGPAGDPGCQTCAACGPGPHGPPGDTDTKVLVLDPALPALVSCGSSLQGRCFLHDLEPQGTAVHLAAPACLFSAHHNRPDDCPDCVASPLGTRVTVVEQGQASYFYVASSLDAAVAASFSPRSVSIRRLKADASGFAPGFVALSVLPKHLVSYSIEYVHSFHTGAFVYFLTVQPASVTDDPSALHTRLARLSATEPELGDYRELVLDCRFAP", "sequence (Q04912 310-1400 limits assumed)": "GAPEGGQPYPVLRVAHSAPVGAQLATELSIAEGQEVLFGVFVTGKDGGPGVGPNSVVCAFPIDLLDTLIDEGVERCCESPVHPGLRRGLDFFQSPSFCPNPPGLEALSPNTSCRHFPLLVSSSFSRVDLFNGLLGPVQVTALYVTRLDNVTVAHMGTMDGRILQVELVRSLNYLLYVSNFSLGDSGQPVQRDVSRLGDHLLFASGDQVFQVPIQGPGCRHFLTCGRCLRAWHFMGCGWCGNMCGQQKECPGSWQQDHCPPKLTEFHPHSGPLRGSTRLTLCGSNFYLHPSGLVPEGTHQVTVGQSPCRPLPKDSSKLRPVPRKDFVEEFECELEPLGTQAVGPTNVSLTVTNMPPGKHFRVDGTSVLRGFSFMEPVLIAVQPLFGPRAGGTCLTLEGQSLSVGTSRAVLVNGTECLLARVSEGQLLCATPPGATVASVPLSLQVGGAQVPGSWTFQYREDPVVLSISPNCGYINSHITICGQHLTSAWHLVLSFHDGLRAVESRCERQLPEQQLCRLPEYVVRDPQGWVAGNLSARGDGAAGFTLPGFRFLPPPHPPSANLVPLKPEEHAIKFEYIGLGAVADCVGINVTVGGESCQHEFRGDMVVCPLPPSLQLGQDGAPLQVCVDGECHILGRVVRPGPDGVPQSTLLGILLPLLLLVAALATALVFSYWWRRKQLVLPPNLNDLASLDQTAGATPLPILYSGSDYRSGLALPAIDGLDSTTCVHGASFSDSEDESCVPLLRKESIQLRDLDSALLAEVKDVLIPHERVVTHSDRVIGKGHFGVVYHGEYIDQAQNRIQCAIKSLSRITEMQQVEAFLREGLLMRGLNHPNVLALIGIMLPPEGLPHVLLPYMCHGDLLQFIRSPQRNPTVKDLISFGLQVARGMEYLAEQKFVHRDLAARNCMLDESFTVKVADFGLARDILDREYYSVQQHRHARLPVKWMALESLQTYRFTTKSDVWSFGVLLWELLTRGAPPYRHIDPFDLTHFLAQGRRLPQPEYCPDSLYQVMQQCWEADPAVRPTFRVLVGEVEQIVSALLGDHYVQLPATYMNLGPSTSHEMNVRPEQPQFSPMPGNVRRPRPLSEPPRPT", "test": "Selectivity interaction (KinomeScan (DiscoverX)) EUB0001619a MST1R", "conditions": "at 1 µM"}, "Activated CDC42 kinase 1": {"target": "Activated CDC42 kinase 1 (Homo sapiens, UniProt Q07912)", "sequence (Q07912 whole entry, looked up)": "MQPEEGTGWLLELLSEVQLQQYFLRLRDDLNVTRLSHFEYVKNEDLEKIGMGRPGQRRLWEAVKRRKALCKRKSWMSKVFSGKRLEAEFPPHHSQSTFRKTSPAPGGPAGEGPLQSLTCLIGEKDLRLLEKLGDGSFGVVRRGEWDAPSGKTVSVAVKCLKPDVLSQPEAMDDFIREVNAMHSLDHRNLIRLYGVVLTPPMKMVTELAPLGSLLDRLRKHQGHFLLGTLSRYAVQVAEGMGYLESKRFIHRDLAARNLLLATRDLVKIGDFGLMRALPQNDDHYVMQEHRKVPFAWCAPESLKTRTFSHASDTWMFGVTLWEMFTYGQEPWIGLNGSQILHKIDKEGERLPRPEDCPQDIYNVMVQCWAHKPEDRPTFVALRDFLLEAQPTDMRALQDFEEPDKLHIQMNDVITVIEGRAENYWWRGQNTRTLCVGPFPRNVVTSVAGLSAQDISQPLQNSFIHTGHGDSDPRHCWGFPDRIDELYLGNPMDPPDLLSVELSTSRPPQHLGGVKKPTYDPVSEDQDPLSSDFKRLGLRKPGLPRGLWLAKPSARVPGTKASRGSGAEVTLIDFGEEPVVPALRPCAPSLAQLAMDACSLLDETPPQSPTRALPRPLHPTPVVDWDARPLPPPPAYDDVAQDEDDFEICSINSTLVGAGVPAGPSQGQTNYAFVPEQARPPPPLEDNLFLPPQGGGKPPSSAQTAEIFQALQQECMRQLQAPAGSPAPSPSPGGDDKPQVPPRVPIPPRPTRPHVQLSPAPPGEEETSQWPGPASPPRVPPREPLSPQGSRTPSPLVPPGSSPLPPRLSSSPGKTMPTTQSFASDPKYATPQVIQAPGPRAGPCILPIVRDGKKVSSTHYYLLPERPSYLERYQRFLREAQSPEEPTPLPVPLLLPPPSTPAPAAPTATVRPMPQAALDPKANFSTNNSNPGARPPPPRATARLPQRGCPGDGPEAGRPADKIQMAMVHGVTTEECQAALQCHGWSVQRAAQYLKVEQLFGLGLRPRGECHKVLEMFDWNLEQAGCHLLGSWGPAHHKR", "test": "Selectivity interaction (KinomeScan (DiscoverX)) EUB0000695a TNK2", "conditions": "at 100 nM"}}}
{"smiles": "O=C(NOC[C@H](O)CO)c1ccc(F)c(F)c1Nc1ccc(I)cc1F", "values": [{"measurement": "% of control", "setting": "[1]", "result": 99, "unit": "%"}]}
{"smiles": "Nc1cnc(N2CCc3cc(S(=O)(=O)Nc4c(F)cc(Cl)cc4F)cc(N4CCCC4=O)c32)nc1", "note": "[TP-020n]", "values": [{"measurement": "% of control", "setting": "[2]", "result": 100, "unit": "%"}]}
{"smiles": "C=CC(=O)Nc1ccc(C(=O)Nc2[nH]nc3c2CN(C(=O)N[C@H](CN(C)C)c2ccccc2)C3(C)C)cc1", "values": [{"measurement": "% of engagement", "setting": "[3]", "result": 4.4, "unit": "%"}]}
{"smiles": "CCC(=O)N1CC[C@H](Nc2ncnc3c2CN(c2cnc(OC)c(C(F)(F)F)c2)CC3)C1", "note": "[LENIOLISIB]", "values": [{"measurement": "IC50", "setting": "[4]", "result": "> 10", "unit": "µM"}]}
{"smiles": "CC[C@@H]1[C@H](F)C(=O)N[C@@H]1COc1nccc2cc(C(N)=O)c(OC)cc12", "note": "[ZIMLOVISERTIB]", "values": [{"measurement": "% of inhibition", "setting": "[5]", "result": -70.7, "unit": "%"}]}
{"smiles": "Cc1cnc(Nc2ccc(F)cc2Cl)nc1-c1c[nH]c(C(=O)N[C@H](CO)c2cccc(Cl)c2)c1", "values": [{"measurement": "% of inhibition", "setting": "[6]", "result": 0, "unit": "%"}]}
{"smiles": "CN(C)C/C=C/C(=O)Nc1ccc(C(=O)N2CCCC(Nc3ncc(Cl)c(-c4c[nH]c5ccccc45)n3)C2)cc1", "note": "(centres undefined)", "values": [{"measurement": "% of control", "setting": "[7]", "result": 100, "unit": "%"}]}
{"smiles": "N#Cc1cccc(-c2c[nH]c3ncnc(N4CCOCC4)c23)c1", "values": [{"measurement": "% of control", "setting": "[8]", "result": 95, "unit": "%"}]}
{"smiles": "Cc1cc(F)c(C(=O)Nc2cccc(-c3nncn3C(C)C)n2)cc1-n1cnc(C2CC2)c1", "values": [{"measurement": "% of control", "setting": "Activated CDC42 kinase 1", "result": 98, "unit": "%"}]}
